Measurements from patent publication US9789102B2, “H3 receptor antagonist for use in the treatment of alzheimer's disease” (SANOFI, priority 2012, dated 2017).

Tested on: tau phosphorylation on AD2 epitope (pSer396-pSer404)
Assay: Western blot of tau phosphorylation on AD-2 epitope after six months in food (Example 3)
Format: in vivo, THY-Tau22 mice
Details: 0.0034% in food
Source text: 2-(Cyclohexylmethyl)-N-{2-[(2S)-1-methylpyrrolidin-2-yl]ethyl}-1,2,3,4-tetrahydroisoquinoline-7-sulfonamide difumarate monohydrate was administrated as a supplement in food at doses of 0.00034%, 0.0034% and 0.034% for six months in THY-Tau22 and wild type mice as follows: • Tg Veh (n=17) • Tg Active Ingredient—0.034% (n=17) • Tg Active Ingredient—0.0034% (n=17) • Tg Active Ingredient—0.00034% (n=17) • WT Veh (n=17) • WT Active Ingredient—0.034% (n=17) • WT Active Ingredient—0.0034% (n=17) • WT Active Ingredient—0.00034% (n=17) • WT groups treated with Active Ingredient are not used in the biochemical and histological studies.
For immunoblot analysis, frozen mouse tissues (either hippocampus or cortex) were homogenized using a Precellys 24 tissue homogenizer in 350 μl RIPA buffer from Cell Signaling (20 mM Tris-HCl (pH 7.5), 150 mM NaCl, 1 mM Na2 EDTA, 1 mM EGTA, 1% NP-40, 1% sodium deoxycholate, 2.5 mM sodium pyrophosphate, 1 mM beta-glycerophosphate, 1 mM Na3VO4, 1 μg/ml leupeptin) to which proteases inhibitors (Sigma cocktail 1% v/v) and phosphatases inhibitors (okadaic acid 1 μM, sodium fluoride 100 mM) were added. After centrifugation, 16000×g 4° C. for 10 minutes, protein content in supernatants was determined with BioRad DC Protein Assay kit, using BSA as a standard. Equal amounts of protein (5 μg) were loaded on 15-well 4-12% Bis-Tris gels (NuPAGE, Invitrogen) and electrophoresis was performed at 200V for 50 minutes in MOPS buffer according to the manufacturer's instructions. […] Tau protein was detected using the following mouse antibody: AD-2 1/20.000^e (Biorad, 56484) which recognizes tau protein phosphorylated on Ser396 and Ser404. […]
Following incubation with primary antibodies, blots were rinsed in TBS Tween 0.1% and incubated for 1 hour at room temperature in an anti-mouse IgG horseradish peroxidase (HRP)-linked secondary antibody 1/10,000^e (GE healthcare, NA9310) diluted in 5% non-fat dry milk in TBS Tween 0.1%. […] Quantification of immunoreactive signal was performed using Multigauge V3.0 software (FUJIFILM). […]

CN1CCC[C@H]1CCNS(=O)(=O)c1ccc2c(c1)CN(CC1CCCCC1)CC2 [2-(cyclohexylmethyl)-N-{2-[(2S)-1-methylpyrrolidin-2-yl]ethyl}-1,2,3,4-tetrahydroisoquinoline-7-sulfonamide difumarate monohydrate]
protein tau phosphorylation on AD-2 epitope in hippocampus, vs vehicle (THY-Tau22 mice): statistical significant decrease
inhibition of tau phosphorylation at the AD-2 epitope, cortex (Western blot, non-significant, p=0.1807): −57%
inhibition of tau phosphorylation at the AD-2 epitope, hippocampus (Western blot, p=0.0229 vs vehicle): −37%
